Laboratory results reported in patent publication US11905230B2, “Phenoxyacetic acid derivatives, preparation method thereof and use thereof as medicament” (CHINA PHARMACEUTICAL UNIVERSITY, priority 2017, dated 2024).

Key:
hGPR40 receptor = hGPR40 receptor (Homo sapiens (Human), UniProt O14842); assay: agonistic activity on hGPR40-CHO stably transfected cells (Fluo-4 / FLIPR); format: cell-based
Description: Experimental example 1 The agonistic activity of the compounds of the present invention on hGPR40-CHO stably transfected cells
The present invention used the following method to determine the GPR40 agonistic activity of the compounds of the invention:
hGPR40-CHO stably transfected cells were seeded into a 96-well plate at a density of 3×10^4/well, and incubated overnight in a 37° C., 5% CO2 cell incubator; the medium was discarded, 100 μl of HBSS was added to each well, and 100 μl of Fluo-4 dye solution containing Probenecid was added and incubated at 37° C. for 90 min. After the incubation, the Fluo-4 dye solution was sucked out, 100 μl of HBSS buffer was added, and the dye was washed away; 100 μl of HBSS containing Probenecid was added to each well, and incubated at 37° C. for 10 min; different concentrations of drugs were added to each well of the 96-well plate and FLIPR (Molecular Devices) was used for readings according to the parameter setting table. The experimental results were analyzed.

normal mice = assay: Oral glucose tolerance test (OGTT) in normal mice; format: in vivo, Kunming mice
Description: Experimental example 2 In vivo hypoglycemic activity of the compounds of the present invention can be determined by using an assay system as described below:
The mice were fasted for 12 hours before experiment and water was taken freely, each group was administrated by gavage, blood was taken from the tail, and the blood glucose level was measured (recorded as −30 min).

[1] = Evaluation of hepatotoxicity: serum ALT, AST and TBIL after 4 weeks of dosing; format: in vivo
Description: Experimental example 3 Evaluation of hepatotoxicity of the compounds of the present invention:
The test compounds were administered once a day for consecutive 4 weeks, blood was taken, and the contents of alanine aminotransferase (ALT), aspartate aminotransferase (AST), and total bilirubin (TBIL) were measured.

GPR120 = GPR120 (Homo sapiens (Human), UniProt Q5NUL3); assay: selective experiment of GPR120 agonism; format: cell-based; conditions: selectivity experiment; read-out: EC K (EC50) of GPR120 agonism
Chain of GPR120 (Q5NUL3 whole entry, species assumed): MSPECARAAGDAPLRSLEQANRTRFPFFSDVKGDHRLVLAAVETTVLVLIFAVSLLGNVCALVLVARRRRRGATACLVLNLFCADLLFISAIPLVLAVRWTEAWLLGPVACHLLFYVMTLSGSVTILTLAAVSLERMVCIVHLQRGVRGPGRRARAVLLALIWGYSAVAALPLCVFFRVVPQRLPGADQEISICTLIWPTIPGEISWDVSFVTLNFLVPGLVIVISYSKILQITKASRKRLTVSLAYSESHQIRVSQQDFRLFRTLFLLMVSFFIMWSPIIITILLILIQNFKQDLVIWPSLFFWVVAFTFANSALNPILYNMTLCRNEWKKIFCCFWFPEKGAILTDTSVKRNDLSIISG

PPARγ = PPARγ (Homo sapiens (Human), UniProt P37231); assay: selective experiment of PPARγ agonism; format: cell-based; conditions: selectivity experiment; read-out: EC K (EC50) of PPARγ agonism
Chain of PPARγ (P37231 whole entry, species assumed): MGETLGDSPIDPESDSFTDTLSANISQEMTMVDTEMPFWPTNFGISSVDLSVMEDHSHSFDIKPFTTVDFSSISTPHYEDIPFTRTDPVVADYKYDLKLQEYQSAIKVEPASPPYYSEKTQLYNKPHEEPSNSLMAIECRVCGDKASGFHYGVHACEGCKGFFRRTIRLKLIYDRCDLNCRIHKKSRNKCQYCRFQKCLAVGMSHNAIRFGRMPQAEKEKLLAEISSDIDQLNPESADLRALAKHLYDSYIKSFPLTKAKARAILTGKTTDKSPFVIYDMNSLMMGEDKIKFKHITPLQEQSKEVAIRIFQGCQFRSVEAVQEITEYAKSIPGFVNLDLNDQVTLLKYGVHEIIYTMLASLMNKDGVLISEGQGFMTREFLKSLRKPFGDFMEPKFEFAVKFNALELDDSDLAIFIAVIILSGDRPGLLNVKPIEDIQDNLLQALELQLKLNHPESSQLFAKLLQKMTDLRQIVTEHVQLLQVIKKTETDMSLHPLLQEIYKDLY

[2] = serum, once a day for consecutive 4 weeks, x ± SD, n = 6

Chain of hGPR40 receptor (O14842 whole entry): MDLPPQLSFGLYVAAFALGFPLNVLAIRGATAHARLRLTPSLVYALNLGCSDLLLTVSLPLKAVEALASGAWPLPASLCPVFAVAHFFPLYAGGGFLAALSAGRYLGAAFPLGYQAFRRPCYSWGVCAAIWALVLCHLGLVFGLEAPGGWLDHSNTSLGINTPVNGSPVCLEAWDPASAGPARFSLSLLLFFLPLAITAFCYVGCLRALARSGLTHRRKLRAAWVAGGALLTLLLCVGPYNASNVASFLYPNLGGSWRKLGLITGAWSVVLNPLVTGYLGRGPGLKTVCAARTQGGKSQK

Compound: Cc1ccccc1-c1cccc(CNc2ccc(OCC(=O)O)c(F)c2)c1 [Compound I-3, 2-(4-((2′-methyl-[1,1′-biphenyl]-3-methylene)amino)-2-fluorophenoxy)acetic acid]
- activation at 0.1 µM (hGPR40 receptor; 100 nM, relative to linoleic acid well): 87%
- EC50 (hGPR40 receptor; mean ± SD of three determinations): 0.0048 ± 0.0035 µM
- effect on oral glucose tolerance in mice (in words) (normal mice; OGTT in normal mice, 20 mg/kg): significantly improve oral glucose tolerance
- blood glucose level at 15 min (normal mice; OGTT, 20 mg/kg by gavage, 15 min after glucose load, n = 8, in mmol/L (unit assumed)): 7.13 ± 0.29
- blood glucose level at 0 min (normal mice; OGTT, 20 mg/kg by gavage, 30 min after dosing, before glucose load, n = 8, in mmol/L (unit assumed)): 4.61 ± 0.63
- blood glucose level at 30 min (normal mice; OGTT, 20 mg/kg by gavage, 30 min after glucose load, n = 8, in mmol/L (unit assumed)): 6.94 ± 0.38
- blood glucose level at 60 min (normal mice; OGTT, 20 mg/kg by gavage, 60 min after glucose load, n = 8, in mmol/L (unit assumed)): 5.06 ± 0.23
- blood glucose level at 120 min (normal mice; OGTT, 20 mg/kg by gavage, 120 min after glucose load, n = 8, in mmol/L (unit assumed)): 4.38 ± 0.29
- AST, ALT and TBIL compared with STZ (blank) group (in words) ([1]; 4 weeks of dosing): equivalent to the blank group
- ALT (IU/L) [1, 2]: 51.23 ± 5.6 IU/L
- AST (IU/L) [1, 2]: 103.27 ± 9.98 IU/L
- TBIL (IU/L) [1, 2]: 2.55 ± 0.4 IU/L
- EC50 (GPR120): 54 µM
- EC50 (PPARγ): 83 µM
